# Laboratory results reported in patent publication US7531195B2, “Schisandrin B preparation” (priority 2005, dated 2009).
# Marks after values point to notes of the source that are not given here.
# Legend:
# Hsp25 = Hsp25 expression in H9c2 cells (Western blot); format: cell-based, rat; settings: 6.25 μM
# Experimental: (§1) H9c2 cells, a permanent cell line derived from cardiac myoblasts of rat embryo, have early been characterized as a suitable model of myocardial cells [Hescheler et al. 1991]. H9c2 cells were cultured as monolayers in Dulbecco's modified Eagle's medium (GIBCO BRL) supplemented with 10% (v/v) fetal bovine serum. The medium contained glucose (4.5 g/L) and glutamine (4.5 mM), supplemented with NaHCO3 (17 mM), penicillin (100 IU/ml), and streptomycin (100 μg/ml). Cells were grown under an atmosphere of 5% CO2 in air at 37° C. The medium was replaced by fresh medium every 2 or 3 days. A stock of cells was grown in a 75 cm culture flask and split before confluence at a subcultivation ratio of 1:10. Cells used for experiments were seeded at a density of 3.75×10^4 cells/well on a 12-well culture plate, and the cells were grown for 24 h to about 80% confluence prior to drug treatment.
# (§2) Cultured H9c2 cells were treated with (−) Schisandrin B, (+) Schisandrin B or (±) Schisandrin B (dissolved in DMSO) at 6.25 μM (0.2% DMSO final concentration) for increasing periods of time. Control cells were given the vehicle (i.e. DMSO) only.
# (§3) Immediately following the drug treatment, the cells were washed twice with 0.5 ml cold PBS and treated with 100 μl lysis buffer containing 20 mM Tris HCl, 3 mM EGTA, 1% Triton X-100, 10% glycerol and 2 mM dithiothreitol, pH 7.5, with freshly added protease inhibitors (1 mM phenylmethylsulfonyl fluoride, 0.1 mM benzamide, 5 μg/ml leupeptin, 5 μg aproptinin and 5 μg/ml pepstain A). The mixture was incubated at 4° C. for 15 min with constant shaking. Then the cells were scraped off from the plate, and the extract was transferred to a microcentrifuge tube for centrifugation at 2,400 g for 3 min at 4° C. The resultant supernatant was used for Hsp analysis. Hsp25 and Hsp70 levels was estimated by Western blot analysis using specific antibodies (anti-Hsp25, catalog #SPA-801; anti-Hsp70, catalog #SPA-812) from StressGen (Vancouver, BC, Canada) following SDS-PAGE analysis cell lysates, using a separating gel of 10% acrylamide as described in Ip et. al. [2001]. Hsp25/27 and Hsp70 (human recombinant proteins from StressGen) and actin (bovine muscle from Sigma) were used as markers for reference. […] All immuno-blots were analyzed by densitometry, and the amounts (arbitrary units) of Hsp were normalized with reference to actin levels (arbitrary units) in the sample.
# Hsp70 = Hsp70 expression in H9c2 cells (Western blot); format: cell-based, rat; settings: 6.25 μM
# Experimental: as §1, §2, §3
# [1] = test system: Isolated-Perfused Rat Heart; assay: Myocardial ischemia-reperfusion injury (LDH leakage), isolated-perfused heart of old rats; format: in vivo; settings: liposome-encapsulated, 10 mg/kg daily, 35 days
# Experimental: Aged male and female rats (˜12 months old) were administered with liposome-encapsulated (−) Schisandrin B in drinking water for 35 days, with the daily dose estimated to be 10 mg/kg.
# Male/Female adult Sprague-Dawley rats (˜12 months old) were maintained under a 12-h dark/light cycle at about 22° C. and allowed food and water ad libitum. Animals were randomly divided into groups, with at least 5 animals in each. In the pretreatment groups, rats were treated with liposome-encapsulated (−) Schisandrin B in drinking water for 35 days, with the estimated daily dose of 10 mg/kg. Control animals received empty liposomes-containing drinking water. Twenty-four hours following the last dosing, hearts were isolated from control or drug-pretreated rats and then subjected to Langendorff perfusion as described below.
# The heart was excised quickly and immediately immersed in ice-cold and heparinized (50 unit/ml) saline. The aorta was cannulated and then transferred to a warm and moistured chamber of the perfusion apparatus. The heart was retrogradely perfused according to Langendorff method as described (Yim and Ko 1999).
# After an initial 30-min of perfusion for equilibration, the isolated heart was subjected to a 40-min period of ‘no-flow’ global ischemia followed by 20 min of reperfusion. Coronary effluent was collected in 1-min fractions at increasing time intervals during the course of equilibration and reperfusion. The fractions were immediately put on ice until assay for lactate dehydrogenase (LDH) activity. The extent of LDH leakage during the reperfusion period, an indirect index of myocardial injury, was estimated by computing the area under the curve of the graph plotting the percent LDH activity (with respect to the mean pre-ischemic value measured during the equilibration period) against the reperfusion time (1-20 min), as described (Yim and Ko 1999). Immediately after the I-R procedure, heart ventricular tissue samples were obtained for biochemical analysis.
# [2] = 0 h post-dosing (unpretreated control)
structure (smiles),measurement,setting,value
"COc1cc2c(c(OC)c1OC)-c1c(cc3c(c1OC)OCO3)CC(C)C(C)C2 (single isomer, unassigned; (-)) [(−) Sch B, (−) Schisandrin B]",Hsp 25 Level,Hsp25; [2],1722 ± 99 AU
same,Hsp 25 Level,Hsp25; 8 h post-dosing,1386 ± 50 AU
same,Hsp 25 Level,Hsp25; 16 h post-dosing,1432 ± 83 AU
same,Hsp 25 Level,Hsp25; 24 h post-dosing,1956 ± 113 AU
same,"Hsp 25 Level, percent increase vs unpretreated control (0 h)",Hsp25; 24 h post-dosing,(14%)
same,Hsp 25 Level,Hsp25; 48 h post-dosing,1878 ± 108 AU
same,time of maximum stimulation of Hsp25 level,Hsp25; post-dosing,24 h
same,Hsp 70 Level,Hsp70; [2],465 ± 14.3 AU
same,Hsp 70 Level,Hsp70; 8 h post-dosing,486 ± 16.7 AU
same,Hsp 70 Level,Hsp70; 16 h post-dosing,548 ± 6.67 AU
same,Hsp 70 Level,Hsp70; 24 h post-dosing,1058 ± 61 AU
same,"Hsp 70 Level, percent increase vs unpretreated control (0 h)",Hsp70; 24 h post-dosing,(128%)
same,Hsp 70 Level,Hsp70; 48 h post-dosing,556 ± 32.1 AU
same,time of maximum stimulation of Hsp70 level,Hsp70; post-dosing,24 h
same,LDH Leakage,"[1]; I-R, old female",4534 ± 86.5^b AU
same,"LDH Leakage, percent protection vs unpretreated control","[1]; I-R, old female",(56%)
same,LDH Leakage,"[1]; I-R, old male",2426 ± 219^a AU
same,"LDH Leakage, percent protection vs unpretreated control","[1]; I-R, old male",(62%)
same,LDH Leakage,"[1]; NON-I-R, old female",611 ± 49.7 AU
same,LDH Leakage,"[1]; NON-I-R, old male",570 ± 66.8 AU
